According to US10494360B2, “Inhibitors of indoleamine 2,3-dioxygenase” (NETHERLANDS TRANSLATIONAL RESEARCH CENTER B.V., priority 2016, dated 2019):
Where “and” joins values, the source holds several entries; their conditions need not be identical. Identical values can stand only once.

Biological target: IDO1 (Homo sapiens, UniProt P14902)
Experiment: Biochemical IDO1 assay (NFK GreenScreen)
Parameters: Recombinant full-length IDO1 (Seegers, N., et al.) and all other assay components were diluted in IDO1 reaction buffer; made in house
Details: for IC50: recombinant full-length IDO1 25 nM, L-tryptophan 100 μM, NFK Green detection, read-out: IC50, inhibitory potency on IDO1; for relative activity of separated isomers: less active / most active isomer of the pair, assay not given
Procedure: Inhibition of IDO1 activity can be measured by determining the enzymatic conversion of L-tryptophan into N-formylkynurenine (NFK) in a reaction mixture containing IDO1 and test compound. The formation of NFK can be detected directly by, for instance, high-performance liquid chromatography (HPLC) methods, or by intrinsic fluorescence.
Compounds were serially diluted in dimethylsulfoxide (DMSO) and finally in IDO1 reaction buffer, consisting of 50 mM NaH2PO4, pH7.0, supplemented with 0.05% Tween-20 (cat. No. P7949; Sigma Aldrich) and 1% glycerol. Recombinant full-length IDO1 (Seegers, N., et al.) and all other assay components were diluted in IDO1 reaction buffer. […] Subsequently, 10 μl of 0.4 mM of the substrate L-tryptophan was added, i.e., the final concentration of L-tryptophan was 100 μM. The DMSO concentration in the assay was 0.3%. […] Incubation was continued for 60 min at room temperature. Then, 10 μl of NFK Green™ (NTRC, Oss, The Netherlands) was added, the plate was sealed, and the reaction was developed for 3 hours at 37° C. To determine the production of N-formyl kynurenine (NFK), the seal was removed and fluorescence was read on an EnVision multimode reader (Perkin Elmer, Waltham, Mass., USA). IC50 were calculated using XLfit™ software (ID Business Solutions, Ltd., Surrey, U.K.).

Sequence of IDO1 (P14902 whole entry, species assumed): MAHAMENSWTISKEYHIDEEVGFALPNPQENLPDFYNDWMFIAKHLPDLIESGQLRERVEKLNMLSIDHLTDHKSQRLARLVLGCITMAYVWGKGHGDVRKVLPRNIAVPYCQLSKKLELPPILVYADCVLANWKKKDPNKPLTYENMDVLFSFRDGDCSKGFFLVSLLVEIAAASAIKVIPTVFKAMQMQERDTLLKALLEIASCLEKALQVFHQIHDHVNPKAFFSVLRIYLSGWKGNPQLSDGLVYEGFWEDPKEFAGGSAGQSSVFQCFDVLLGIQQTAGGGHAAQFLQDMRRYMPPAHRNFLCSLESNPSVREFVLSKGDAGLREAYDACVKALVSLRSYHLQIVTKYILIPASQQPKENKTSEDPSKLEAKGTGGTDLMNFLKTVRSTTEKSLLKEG

SMILES | IC50 | relative activity of separated isomers
CCOC(=O)NC[C@H]1CC[C@H](C(=O)N2CC(=O)N(O)C2c2cccc(Br)c2)CC1 (relative stereo) [Example 102, (Trans)-ethyl N-[[4-[2-(3-bromophenyl)-3-hydroxy-4-oxo-imidazolidine-1-carbonyl]cyclohexyl]-methyl]carbamate] | ≤ 5 µM and 1 to 5 µM | –
C[C@@H]1C(=O)N(O)C(c2cccc(Br)c2)N1C(=O)c1ccccc1F (single isomer, unassigned) [Example 57] | ≤ 5 µM and 1 to 5 µM | –
O=C1CN(C(=O)c2ccccc2)C(c2cccc(Br)c2)N1O (single isomer, unassigned) [Example 63a, 1-benzoyl-2-(3-bromophenyl)-3-hydroxy-imidazolidin-4-one] | ≤ 1 µM | –
O=C1CN(C(=O)c2ccccc2)C(c2cccc(Br)c2)N1O (single isomer, unassigned) [Example 63b, 1-benzoyl-2-(3-bromophenyl)-3-hydroxy-imidazolidin-4-one] | ≤ 5 µM and 1 to 5 µM | –
O=C1CN(C(=O)c2ccccc2)C(c2cccc(Br)c2)N1O (single isomer, unassigned) [Example 64, 1-benzoyl-2-(3-bromophenyl)-3-hydroxy-imidazolidin-4-one] | ≤ 5 µM and 1 to 5 µM | –
C[C@@H](c1ccccc1)N1CC(=O)N(O)C1c1cccc(Br)c1 (single isomer, unassigned) [Example 139a] | – | less active isomer
C[C@@H](c1ccccc1)N1CC(=O)N(O)C1c1cccc(I)c1 (single isomer, unassigned) [Example 140b] | ≤ 1 µM | most active isomer
O=C1CN(C(=O)c2c(F)cccc2F)C(c2cccc(Br)c2)N1O (single isomer, unassigned) [Example 142b, 2-(3-bromophenyl)-1-(2,6-difluorobenzoyl)-3-hydroxy-imidazolidin-4-one] | ≤ 1 µM | most active isomer
O=C1CN(C(=O)c2c(F)cccc2Cl)C(c2ccc(F)c(Br)c2)N1O (single isomer, unassigned) [Example 143a, 2-(3-bromo-4-fluoro-phenyl)-1-(2-chloro-6-fluoro-benzoyl)-3-hydroxy-imidazolidin-4-one] | ≤ 5 µM and 1 to 5 µM | less active isomer
O=C1CN(C(=O)c2c(F)cccc2Cl)C(c2ccc(F)c(Br)c2)N1O (single isomer, unassigned) [Example 143b, 2-(3-bromo-4-fluoro-phenyl)-1-(2-chloro-6-fluoro-benzoyl)-3-hydroxy-imidazolidin-4-one] | ≤ 1 µM | most active isomer
O=C1CN(C(=O)c2c(F)cc(C#CC3CC3)cc2F)C(c2cccc(Br)c2)N1O (single isomer, unassigned) [Example 144a, 2-(3-bromophenyl)-1-[4-(2-cyclopropylethynyl)-2,6-difluoro-benzoyl]-3-hydroxy-imidazolidin-4-one] | ≤ 1 µM | less active isomer
O=C1CN(C(=O)c2c(F)cc(C#CC3CC3)cc2F)C(c2cccc(Br)c2)N1O (single isomer, unassigned) [Example 144b, 2-(3-bromophenyl)-1-[4-(2-cyclopropylethynyl)-2,6-difluoro-benzoyl]-3-hydroxy-imidazolidin-4-one] | ≤ 1 µM | most active isomer
O=C1CN(Cc2c(F)cccc2F)C(c2cccc(Br)c2)N1O (single isomer, unassigned) [Example 145a, 2-(3-bromophenyl)-1-[(2,6-difluorophenyl)methyl]-3-hydroxy-imidazolidin-4-one] | ≤ 1 µM | less active isomer
O=C1CN(Cc2c(F)cccc2F)C(c2cccc(Br)c2)N1O (single isomer, unassigned) [Example 145b, 2-(3-bromophenyl)-1-[(2,6-difluorophenyl)methyl]-3-hydroxy-imidazolidin-4-one] | ≤ 1 µM | most active isomer
O=C1CN(Cc2ccccc2F)C(c2cccc(I)c2)N1O (single isomer, unassigned) [Example 146a, 1-[(2-fluorophenyl)methyl]-3-hydroxy-2-(3-iodophenyl)imidazolidin-4-one] | ≤ 1 µM | less active isomer
O=C1CN(Cc2ccccc2F)C(c2cccc(I)c2)N1O (single isomer, unassigned) [Example 146b, 1-[(2-fluorophenyl)methyl]-3-hydroxy-2-(3-iodophenyl)imidazolidin-4-one] | ≤ 1 µM | most active isomer
NS(=O)(=O)NCC#Cc1cc(F)c(C(=O)N2CC(=O)N(O)C2c2cccc(Br)c2)c(F)c1 (single isomer, unassigned) [Example 147b, 2-(3-bromophenyl)-1-[2,6-difluoro-4-[3-(sulfamoylamino)prop-1-ynyl]benzoyl]-3-hydroxy-4-oxo-imidazolidine] | ≤ 1 µM | most active isomer
O=C1CN(C(=O)c2ccccc2)C(c2cccc(C(F)(F)F)c2)N1O (stereo not drawn) [Example 1, 1-Benzoyl-3-hydroxy-2-[3-(trifluoromethyl)phenyl]imidazolidin-4-one] | ≤ 5 µM and 1 to 5 µM | –
O=C1CN(C(=O)c2ccccc2F)C(c2ccc(Cl)c(C(F)(F)F)c2)N1O (stereo not drawn) [Example 8, 2-[4-Chloro-3-(trifluoromethyl)phenyl]-1-(2-fluorobenzoyl)-3-hydroxy-imidazolidin-4-one] | ≤ 5 µM and 1 to 5 µM | –
O=C1CN(C(=O)c2c(F)cccc2Cl)C(c2cccc(Cl)c2)N1O (stereo not drawn) [Example 14, 1-(2-Chloro-6-fluoro-benzoyl)-2-(3-chlorophenyl)-3-hydroxy-imidazolidin-4-one] | ≤ 5 µM and 1 to 5 µM | –
O=C1CN(C(=O)c2ccc(Cl)cc2Cl)C(c2cccc(Br)c2)N1O (stereo not drawn) [Example 16, 2-(3-Bromophenyl)-1-(2,4-dichlorobenzoyl)-3-hydroxy-imidazolidin-4-one] | ≤ 5 µM and 1 to 5 µM | –
COc1ccc(C(=O)N2CC(=O)N(O)C2c2cccc(Br)c2)cc1 (stereo not drawn) [Example 18, 2-(3-Bromophenyl)-3-hydroxy-1-(4-methoxybenzoyl)imidazolidin-4-one] | ≤ 5 µM and 1 to 5 µM | –
Cc1ccccc1C(=O)N1CC(=O)N(O)C1c1cccc(Br)c1 (stereo not drawn) [Example 20, 2-(3-Bromophenyl)-3-hydroxy-1-(2-methylbenzoyl)imidazolidin-4-one] | ≤ 5 µM and 1 to 5 µM | –
O=C1CN(C(=O)C2CCC2)C(c2ccc(F)c(Br)c2)N1O (stereo not drawn) [Example 23, 2-(3-Bromo-4-fluoro-phenyl)-1-(cyclobutanecarbonyl)-3-hydroxy-imidazolidin-4-one] | ≤ 5 µM and 1 to 5 µM | –
O=C1CN(C(=O)c2ccccc2Br)C(c2cccc(Br)c2)N1O (stereo not drawn) [Example 24, 1-(2-Bromobenzoyl)-2-(3-bromophenyl)-3-hydroxy-imidazolidin-4-one] | ≤ 5 µM and 1 to 5 µM | –
O=C1CN(C(=O)c2ccccc2C(F)(F)F)C(c2cccc(Br)c2)N1O (stereo not drawn) [Example 28, 2-(3-Bromophenyl)-3-hydroxy-1-[2-(trifluoromethyl)benzoyl]imidazolidin-4-one] | ≤ 5 µM and 1 to 5 µM | –
O=C1CN(C(=O)c2ccc(F)cc2)C(c2cccc(Br)c2)N1O (stereo not drawn) [Example 29, 2-(3-Bromophenyl)-1-(4-fluorobenzoyl)-3-hydroxy-imidazolidin-4-one] | ≤ 5 µM and 1 to 5 µM | –
O=C1CN(C(=O)c2ccc(F)cc2Cl)C(c2cccc(Br)c2)N1O (stereo not drawn) [Example 30, 2-(3-Bromophenyl)-1-(2-chloro-4-fluoro-benzoyl)-3-hydroxy-imidazolidin-4-one] | ≤ 5 µM and 1 to 5 µM | –
